Type in all cases: cell-based
The test system of assay [1] is human diffuse large B-cell lymphoma cell line WSU-DLCL2. Kind of assay: Cell proliferation inhibition (CCK-8) in WSU-DLCL2. Conditions: WSUDLCL2, WSU-DLCL2 cells, 72 h treatment, read-out: IC50 (half inhibitory concentration) in tumor cells, WSU-DLCL2. The source says:
(§1) The tested cell lines used were: Multiple myeloma cell line MM.1S, human Burkitt's lymphoma cell line Daudi, human acute promyelocytic leukemia cell line NB4, human mantle cell lymphoma cell line JEKO-1, human B-cell lymphoma cell line SU-DHL-4, human mantle cell lymphoma cell line Mino, human diffuse large B-cell lymphoma cell line TMD8, human B-cell lymphoma cell line DOHH2, PBMCs cell and human diffuse large B-cell lymphoma cell line WSU-DLCL2, which were purchased from ATCC (American type Culture Collection) or Cell Bank/Stem Cell Bank, Chinese Academy of Sciences. The medium was RPMI1640 supplemented with 10% FBS (fetal calf serum) and 1% Penicillin-Streptomycin. […]
(§2) IC50 values of the compounds of the present disclosure (including the compounds in Table 1 and compounds of examples 1-23) were measured using Cell Titer Blue, Cell Titer GLO, or WST reagent from Promega Company. […] After the cells were treated with the compounds of the present disclosure to be tested for 72 h, cell viability was determined after adding the cell viability detection kit listed above according to the reagent operating instructions. […] The growth inhibition of the compounds of the present disclosure on cells was plotted by Prism Graphpad software, and the IC50 values of the compounds of the present disclosure were calculated therefrom. […]

For assay [2], the system named is human diffuse large B-cell lymphoma cell line TMD8. Briefly: Cell proliferation inhibition (CCK-8) in TMD8. Conditions: TMD8 cells, 72 h treatment, read-out: IC50 (half inhibitory concentration) in tumor cells, TMD8.
Text: as §1, §2

Assay [3] deals with TNF-α. Kind of assay: TNF-α inhibition in LPS-stimulated PBMC cells (ELISA). As to conditions: LPS 1 ng/ml, 18-20 h, FIG. 2. The procedure:
PBMC cells were cultured at 37° C. in 5% CO2 atmosphere, and then seeded in 96-well plates at […]. […] Cells were incubated in medium with or without compounds for 1 h, then stimulated with lipopolysaccharide (LPS; 1 ng/ml), and continually cultured for 18-20 h. Then, the supernatant was collected, diluted with serum-free medium, and tested for TNF-α level by ELISA kit. IC50 was then calculated by Graphpad Prism 7.0. Down-regulation of TNF-α expression is an important way of anti-tumor effect of immunomodulators.
On the technique in general: In an ELISA, binding on a coated surface is turned into a signal by an enzyme label.

In assay [4] the test system is human B-cell lymphoma cell line DOHH2. Briefly: Cell proliferation inhibition (CCK-8) in DOHH2. As to conditions: DOHH-2, DOHH2 cells, 72 h treatment, read-out: IC50 (half inhibitory concentration) in tumor cells, DOHH2.
Text: as §1, §2

Assay [5] deals with multiple myeloma cancer cells MM.1S. Kind of assay: Cell proliferation inhibition (cell viability, CCK-8) in MM.1S. As to conditions: Homo sapiens, MM1.S; MM.1S cells, 72 h treatment, CCK-8 cell viability. The source says:
(§3) The tested cell lines used were: Multiple myeloma cell line MM.1S, human Burkitt's lymphoma cell line Daudi, human acute promyelocytic leukemia cell line NB4, human mantle cell lymphoma cell line JEKO-1, human B-cell lymphoma cell line SU-DHL-4, human mantle cell lymphoma cell line Mino, human diffuse large B-cell lymphoma cell line TMD8, human B-cell lymphoma cell line DOHH2, PBMCs cell and human diffuse large B-cell lymphoma cell line WSU-DLCL2, which were purchased from ATCC (American type Culture Collection) or Cell Bank/Stem Cell Bank, Chinese Academy of Sciences. The medium was RPMI1640 supplemented with 10% FBS (fetal calf serum) and 1% Penicillin-Streptomycin. The cells used were identified as correct cells by STR cells, and were negative for mycoplasma through routine inspections.
(§4) IC50 values of the compounds of the present disclosure (including the compounds in Table 1 and compounds of examples 1-23) were measured using Cell Titer Blue, Cell Titer GLO, or WST reagent from Promega Company. Assay details are as follows: Cells were seeded in 100 μL RPMI1640 medium containing serum at a density of 15,000 cells/well. After 24 h, the inoculated cells were treated with diluted commercial inhibitor and the compounds of the present disclosure to be tested after serial dilution. After the cells were treated with the compounds of the present disclosure to be tested for 72 h, cell viability was determined after adding the cell viability detection kit listed above according to the reagent operating instructions. The negative control was DMSO, and the positive control was a commercial inhibitor, both of which were used to treat the cells through the same method as that of the compounds of the present disclosure. The growth inhibition of the compounds of the present disclosure on cells was plotted by Prism Graphpad software, and the IC50 values of the compounds of the present disclosure were calculated therefrom.
(§5) We tested the activities of the compounds of the present invention (including the compounds in Table 1 and Examples 1-23 compounds) in multiple myeloma cancer cells MM.1S cell and B lymphoma cells Daudi through a dose-dependent manner. The cells were treated with the compounds of the present invention at 10 different successively decreasing concentrations (starting at the highest concentration of […]; 5-fold serial dilutions) for 72 h, and then the cell viability determination was performed in accordance with CCK-8 reagent operating instructions.

Assay [6] deals with human mantle cell lymphoma cell line Mino. Briefly: Cell proliferation inhibition (CCK-8) in Mino. Conditions: MINO cells, 72 h treatment, read-out: IC50 (half inhibitory concentration) in tumor cells, MINO.
Text: as §1, §2

In assay [7] the test system is B lymphoma cells Daudi. Briefly: Cell proliferation inhibition (cell viability, CCK-8) in Daudi. Conditions: Homo sapiens, 72 h treatment, CCK-8 cell viability.
Text: as §3, §4, §5

We go through 16 compounds from patent US20230303539A1, “IMMUNOREGULATORY COMPOUND AND ANTITUMOR APPLICATION THEREOF” (SHANGHAITECH UNIVERSITY, priority 2020, published 2023).

Turning to `Cc1nc2cccc(N)c2c(=O)n1C1CCC(=O)NC1=O` (stereo not drawn) [CC-122, Avadomide, reference compound], the IC50 is greater than 1 µM in assay [1]; 0.492 µM in assay [2]; greater than 1 µM in assay [4]; 0.0218 ± 0.0043 µM in assay [5]; 0.055 µM in assay [6]; 0.158 ± 0.00948 µM in assay [7]. The “inhibition of the level of TNF-α (in words)” value (“inhibition” below) in assay [3] is “the level of TNF-α was inhibited in a dose-dependent manner”.

In the case of `Cc1nc2cccc(NCc3ccc(CN4CCOCC4)cc3)c2c(=O)n1C1CCC(=O)NC1=O` (stereo not drawn) [SIAIS264067, 3-(2-methyl-5-((4-(morpholinomethyl)benzyl)amino)-4-oxoquinazolin-3(4H)-yl)piperidine-2,6-dione], the “inhibition” value in assay [3] was “better inhibitory activities than CC-122”. Besides, the values for the IC50 in assay [5] and in assay [7] were 0.00859 ± 0.00132 µM and 0.0546 ± 0.00735 µM, respectively.

Consider `Cc1nc2cccc(NCCc3ccccc3)c2c(=O)n1C1CCC(=O)NC1=O` (stereo not drawn) [SIAIS264103, 3-(2-methyl-4-oxo-5-(phenethylamino)quinazolin-3(4H)-yl)piperidine-2,6-dione], for which the IC50 came to 0.0873 ± 0.00518 µM in assay [5] and 0.826 ± 0.0373 µM in assay [7].

With `Cc1nc2cccc(NCc3ccccc3F)c2c(=O)n1C1CCC(=O)NC1=O` (stereo not drawn) [SIAIS264123, 3-(5-((2-fluorobenzyl)amino)-2-methyl-4-oxoquinazolin-3(4H)-yl)piperidine-2,6-dione], the IC50 in assay [5] came out at 0.0575 ± 0.0115 µM; in assay [7] it was 0.322 ± 0.0221 µM.

As to `Cc1nc2cccc(NCc3ccc(CNC45CC6CC(CC(C6)C4)C5)cc3)c2c(=O)n1C1CCC(=O)NC1=O` [SIAIS264156, 3-(5-((4-(((1R,3R,5S)-adamantan-1-ylamino)methyl)benzyl)amino)-2-methyl-4-oxoquinazolin-3(4H)-yl)piperidine-2,6-dione], the figures for the IC50 in assay [5] and in assay [7] were 0.00964 ± 0.00083 µM and 0.0448 ± 0.0196 µM, respectively.

In assay [5], `Cc1nc2cccc(NCc3ccc(CNC4C5CC6CC(C5)CC4C6)cc3)c2c(=O)n1C1CCC(=O)NC1=O` [SIAIS264172, 3-(5-((4-(((1R,2s,3S,5r)-adamantan-2-ylamino)methyl)benzyl)amino)-2-methyl-4-oxoquinazolin-3(4H)-yl)piperidine-2,6-dione] displayed an IC50 of 0.00252 ± 0.00068 µM.

Take `Cc1nc2cccc(NCc3ccc4c(c3)OCO4)c2c(=O)n1C1CCC(=O)NC1=O` (stereo not drawn) [SIAIS264177, 3-(5-((benzo[d][1,3]dioxol-5-ylmethyl)amino)-2-methyl-4-oxoquinazolin-3(4H)-yl)piperidine-2,6-dione]: the values for the IC50 in assay [5] and in assay [7] were 0.0347 ± 0.00529 µM and 0.222 ± 0.0409 µM, respectively.

In the case of `Cc1nc2cccc(NCc3ccc(CO)cc3)c2c(=O)n1C1CCC(=O)NC1=O` (stereo not drawn) [SIAIS313055, 3-(5-((4-(hydroxymethyl)benzyl)amino)-2-methyl-4-oxoquinazolin-3(4H)-yl)piperidine-2,6-dione], the IC50 in assay [5] is 0.0364 ± 0.00674 µM; in assay [7], 0.166 ± 0.0147 µM.

`Cc1nc2cccc(NCC3CCC(C(=O)NC45CC6CC(CC(C6)C4)C5)CC3)c2c(=O)n1C1CCC(=O)NC1=O` (stereo not drawn) [SIAIS313068, N-((3s,5s,7s)-adamantan-1-yl)-4-(((3-(2,6-dioxopiperidin-3-yl)-2-methyl-4-oxo-3,4-dihydroquinazolin-5-yl)amino)methyl)cyclohexanecarboxamide]: the IC50 is 0.0837 ± 0.00279 µM in assay [5] and 0.492 ± 0.0332 µM in assay [7].

In the case of `Cc1nc2cccc(NCc3ccc(CN4CCCCC4)cc3)c2c(=O)n1C1CCC(=O)NC1=O` (stereo not drawn) [SIAIS313069, 3-(2-methyl-4-oxo-5-((4-(piperidin-1-ylmethyl)benzyl)amino)quinazolin-3(4H)-yl)piperidine-2,6-dione], the IC50 came out at 0.0215 ± 0.00584 µM in assay [5] and 0.129 ± 0.0188 µM in assay [7].

`Cc1nc2cccc(NCc3ccc(CN4CCSCC4)cc3)c2c(=O)n1C1CCC(=O)NC1=O` (stereo not drawn) [SIAIS313074, 3-(2-methyl-4-oxo-5-((4-(thiomorpholinomethyl)benzyl)amino)quinazolin-3(4H)-yl)piperidine-2,6-dione]: the “inhibition” value in assay [3] is reported as “better inhibitory activities than CC-122”. The IC50 in assay [5] came out at 0.0106 ± 0.00195 µM; in assay [7] it was 0.0587 ± 0.0224 µM.

As to `Cc1nc2cccc(NCc3ccc(CN4CC(C)CC(C)C4)cc3)c2c(=O)n1C1CCC(=O)NC1=O` (stereo not drawn) [SIAIS313075, 3-(5-((4-((3,5-dimethylpiperidin-1-yl)methyl)benzyl)amino)-2-methyl-4-oxoquinazolin-3(4H)-yl)piperidine-2,6-dione], the IC50 in assay [5] is 0.0164 ± 0.00282 µM; in assay [7] it was 0.131 ± 0.0276 µM.

For the compound `Cc1nc2cccc(NCc3ccc(CN4CCCCCC4)cc3)c2c(=O)n1C1CCC(=O)NC1=O` (stereo not drawn) [SIAIS313087, 3-(5-((4-(azepan-1-ylmethyl)benzyl)amino)-2-methyl-4-oxoquinazolin-3(4H)-yl)piperidine-2,6-dione], the “inhibition” value in assay [3] is recorded as “better inhibitory activities than CC-122”. Besides, the values for the IC50 in assay [5] and in assay [7] were 0.00482 ± 0.00236 µM and 0.0435 ± 0.0179 µM, respectively.

With `Cc1nc2cccc(NCc3ccc(CNC45CC6CC(CC(C6)C4)C5)cc3F)c2c(=O)n1C1CCC(=O)NC1=O` (stereo not drawn) [SIAIS355049, 3-(5-((4-((adamantan-1-ylamino)methyl)-2-fluorobenzyl)amino)-2-methyl-4-oxoquinazolin-3(4H)-yl)piperidine-2,6-dione], the IC50 in assay [5] is 0.00561 ± 0.00241 µM; in assay [7] it was 0.0829 ± 0.026 µM.

Consider `Cc1nc2cccc(NCc3ccc(CN4CCCCCC4)cn3)c2c(=O)n1C1CCC(=O)NC1=O` (stereo not drawn) [SIAIS355062, 3-(5-(((5-(azepan-1-ylmethyl)pyridin-2-yl)methyl)amino)-2-methyl-4-oxoquinazolin-3(4H)-yl)piperidine-2,6-dione], for which the IC50 in assay [5] is 0.0221 ± 0.012 µM; in assay [7], 0.105 ± 0.0199 µM.

Consider `Cc1nc2cccc(NCc3ccc(CNC45CC6CC(CC(C6)C4)C5)cn3)c2c(=O)n1C1CCC(=O)NC1=O` (stereo not drawn) [SIAIS355068, 3-(5-(((5-(((adamantan-1-yl)amino)methyl)pyridin-2-yl)methyl)amino)-2-methyl-4-oxoquinazolin-3(4H)-yl)piperidine-2,6-dione], for which the IC50 in assay [5] turned out to be 0.0377 ± 0.0121 µM; in assay [7], 0.139 ± 0.022 µM.
